Data published in patent publication US20250177566A1, “USE OF CHEMICAL EPIGENETIC MODIFIERS TO MODULATE GENE EXPRESSION” (The University of North Carolina at Chapel Hill, priority 2022, published 2025).

What was measured:
TRE3G-GFP reporter gene = TRE3G-GFP reporter gene activation in HCT116, dCas9 + MS2-FKBP*x2 (F36V) system, flow cytometry; format: cell-based, human; set-up: fold change, GFP: reference not given here; conditions: for fold change, GFP (TRE3G gRNA vs NT gRNA): FIG. 1C, 48 hours; for fold change, GFP (TRE3G gRNA vs NT gRNA) / fold change, GFP: 10 nM; for % repress, GFP (no AP1867 vs AP1867 added): FIG. 1D; for fold change, GFP: FIG. 5A
CXCR4 = CXCR4 mRNA activation in HCT116 stably expressing dCas9 and MS2-FKBP*x2, qRT-PCR; format: cell-based, human; conditions: FIG. 2C; 5 nM; 48 hrs
Method: To further explore the activation potential of the SLF*-CEMa, their ability to target endogenous genes was evaluated (FIGS. 2A and 2B). Lentivirus was used to establish a stable HCT116 cell line expressing dCas9 and MS2-FKBP*x2 constructs, selecting for cells with antibiotic resistance. […] All CEMs were screened for their ability to activate the CXCR4 gene at 5 nM (FIG. 2C). RNA extraction and quantitative RT-PCR (qRT-PCR) were performed after 48 hours of CEM treatment.
To determine the optimal treatment concentration of the SLF*-CEMa molecules in this context, HCT116 cells were treated with 1 nM, 5 nM, 25 nM, and 50 nM of CEM203, CEM207, or CEM87. […] After 48 hours, RNA extraction followed by qRT-PCR was performed to evaluate the change in mRNA expression of CXCR4 (FIG. 2D). […] To directly compare this induced activation to other CRISPR-Cas9-based epigenetic activators, dCas9-VPR and dCas9-p300 constructs were virally infected into HCT116 cells and CXCR4 activation assessed in a similar fashion (FIGS. 2A and 2B).
To determine the time at which SLF*-CEMa most effectively induces gene activation, CXCR4 gene expression changes over time were investigated in dCas9 and MS2-FKBP*x2 stably infected HCT116 cells. Cells were treated with either vehicle, […] (FIG. 3A). RNA extraction and qRT-PCR were performed at 12, 24, 48, 72, and 96 hrs time points (FIG. 3B).
To investigate if endogenous gene activation triggered by the SLF*-CEMa compounds is also reversible, HCT116 cells were treated with CEM203 (50 nM) or CEM207 (25 nM) for 24 hours after transfecting CXCR4 gRNA, and then the CEMs were removed by media exchange at various time points. […] Likewise, it was investigated whether treatment with excess AP1867 could further reverse gene activation, potentially in a more robust fashion than with washout alone if there is any remaining intracellular SLF*-CEMa. To test this, after 24 hours of SLF*-CEMa treatment, a media exchange containing 20 μM AP1867 was performed (FIGS. 3C and 3D).
RNA extraction and qRT-PCR. All RNA extraction experiments were conducted in 12-well plate format. Culturing medium was removed, and cells were washed with 1×PBS, following with 0.05% trypsin to disassociate. After being quenched by medium and centrifuged, cells were washed with 1×PBS, and the RNA extraction was performed by using RNeasy Plus Mini kit (Qiagen, 74134). RT-qPCR was conducted by using RNA-to CT 1-step kit (Thermo Fisher Scientific, 4389986). The primer sets used in quantifying each gene can be found in Table 4.

Row | Structure (SMILES) | fold change, GFP (TRE3G gRNA vs NT gRNA) (TRE3G-GFP reporter gene) [fold] | % repress, GFP (no AP1867 vs AP1867 added) (TRE3G-GFP reporter gene; TRE3G gRNA, CEM207 5 nM + AP1867 5 μM) [%] | % repress, GFP (no AP1867 vs AP1867 added) (TRE3G-GFP reporter gene; TRE3G gRNA, CEM207 5 nM + AP1867 10 μM) [%] | % repress, GFP (no AP1867 vs AP1867 added) (TRE3G-GFP reporter gene; TRE3G gRNA, CEM207 5 nM + AP1867 20 μM) [%] | fold change, GFP (no AP1867 vs AP1867 added) (TRE3G-GFP reporter gene; FIG. 5B, TRE3G gRNA, CEM207 5 nM + AP1867 500 nM, 48 hrs) | fold change, CXCR4 mRNA (Treated vs Non-Treated) (CXCR4) [fold] | fold change, GFP (TRE3G-GFP reporter gene; NT gRNA, 48 hrs) [fold] | fold change, GFP (TRE3G-GFP reporter gene; TRE3G gRNA, 48 hrs) [fold]
1 | CC[C@H](C(=O)N1CCCC[C@H]1C(=O)O[C@H](CCc1ccc(OC)c(OC)c1)c1cccc(OCC(=O)O)c1)c1cc(OC)c(OC)c(OC)c1 [AP1867, reference compound] | 1.4 | 45 | 84 | 91 | No change in GFP expression |  |  | 
2 | CC[C@H](C(=O)N1CCCC[C@H]1C(=O)O[C@H](CCc1ccc(OC)c(OC)c1)c1cccc(OCC(=O)NCCOCCOCCNC(=O)C[C@@H]2N=C(c3ccc(Cl)cc3)c3cc(OC)ccc3-n3c(C)nnc32)c1)c1cc(OC)c(OC)c(OC)c1 [CEM201, (1R)-1-(3-((14-((4S)-6-(4-Chlorophenyl)-8-methoxy-1-methyl-4H-benzo[f][1,2,4]triazolo[4,3-a][1,4]diazepin-4-yl)-2,13-dioxo-6,9-dioxa-3,12-diazatetradecyl)oxy)phenyl)-3-(3,4-dimethoxyphenyl) propyl (2S)-1-((S)-2-(3,4,5-trimethoxyphenyl)butanoyl) piperidine-2-carboxylate] |  |  |  |  |  | 5.8 | 0.6 | 8.2
3 | CC[C@H](C(=O)N1CCCC[C@H]1C(=O)O[C@H](CCc1ccc(OC)c(OC)c1)c1cccc(OCC(=O)NCCOCCOCCOCCOCCOCCNC(=O)C[C@@H]2N=C(c3ccc(Cl)cc3)c3cc(OC)ccc3-n3c(C)nnc32)c1)c1cc(OC)c(OC)c(OC)c1 [CEM204, (1R)-1-(3-((23-((4S)-6-(4-Chlorophenyl)-8-methoxy-1-methyl-4H-benzo[f][1,2,4]triazolo[4,3-a][1,4]diazepin-4-yl)-2,22-dioxo-6,9,12,15,18-pentaoxa-3,21-diazatricosyl)oxy)phenyl)-3-(3,4-dimethoxyphenyl) propyl (2S)-1-((S)-2-(3,4,5-trimethoxyphenyl)butanoyl) piperidine-2-carboxylate] |  |  |  |  |  | 7.2 | 0.3 | 5.7
4 | CC[C@H](C(=O)N1CCCC[C@H]1C(=O)O[C@H](CCc1ccc(OC)c(OC)c1)c1cccc(OCC(=O)NCCOCCOCCOCCOCCOCCOCCNC(=O)C[C@@H]2N=C(c3ccc(Cl)cc3)c3cc(OC)ccc3-n3c(C)nnc32)c1)c1cc(OC)c(OC)c(OC)c1 [CEM205, (1R)-1-(3-((26-((4S)-6-(4-Chlorophenyl)-8-methoxy-1-methyl-4H-benzo[f][1,2,4]triazolo[4,3-a][1,4]diazepin-4-yl)-2,25-dioxo-6,9,12,15,18,21-hexaoxa-3,24-diazahexacosyl)oxy)phenyl)-3-(3,4-dimethoxyphenyl) propyl (2S)-1-((S)-2-(3,4,5-trimethoxyphenyl)butanoyl) piperidine-2-carboxylate] |  |  |  |  |  | 8.8 | 0.4 | 6.9
5 | CC[C@H](C(=O)N1CCCC[C@H]1C(=O)O[C@H](CCc1ccc(OC)c(OC)c1)c1cccc(OCC(=O)NCCOCCOCCOCCOCCOCCOCCOCCNC(=O)C[C@@H]2N=C(c3ccc(Cl)cc3)c3cc(OC)ccc3-n3c(C)nnc32)c1)c1cc(OC)c(OC)c(OC)c1 [CEM206, (1R)-1-(3-((29-((4S)-6-(4-Chlorophenyl)-8-methoxy-1-methyl-4H-benzo[f][1,2,4]triazolo[4,3-a][1,4]diazepin-4-yl)-2,28-dioxo-6,9,12,15,18,21,24-heptaoxa-3,27-diazanonacosyl)oxy)phenyl)-3-(3,4-dimethoxyphenyl) propyl (2S)-1-((S)-2-(3,4,5-trimethoxyphenyl)butanoyl) piperidine-2-carboxylate] |  |  |  |  |  | 13.9 | 0.3 | 8.5
6 | CCNC(=O)C[C@@H]1N=C(c2ccc(Cl)cc2)c2cc(OC)ccc2-n2c(C)nnc21 [iBET762, reference compound] | 2.4 |  |  |  |  |  |  | 
